PMC6479757, “Coralmycin Derivatives with Potent Anti-Gram Negative Activity Produced by the Myxobacteria Corallococcus coralloides M23” (Molecules, 2019)
Values after ≈ are worked out from the molar mass of the structure shown. Read-outs that look alike come from different tables or passages of the source.

Tests used:
[1] = test system: Gram-negative pathogens; conditions: compared with 12; cited from earlier work
[2] = target: T1, E. coli DNA gyrase (Escherichia coli, UniProt P0AES4+P0AES6); experiment: DNA gyrase supercoiling assay; type: biochemical; conditions: relaxed plasmid, 37 °C for 30 min, agarose gel band densities; read-out: IC50, inhibition of the supercoiling activity of E. coli DNA gyrase
T1 construct: purchased TopoGEN TG2001G
Method: The inhibitory activities of coralmycins on the supercoiling activity of DNA gyrase were investigated using a ‘Purified E. coli DNA Gyrase Drug Screening Kit’ (TopoGEN #TG2001G, Buena Vista, CO, USA). […] The reaction was terminated by the addition of 2 μL of 10% (w/v) SDS and 2 μL of 10× DNA gel loading dye (bromophenol blue). Then, 20 μL of chloroform:isoamyl alcohol (24:1 mixture) was added, and the mixture was vortexed and then centrifuged. The samples in the blue phase were run on 1% (w/v) agarose gel and were visualized using ethidium bromide. All reactions were performed in triplicate. To calculate the IC50 values, the band densities were measured using ImageJ (National Institutes of Health, Bethesda, Maryland, MD, USA).

[3] = test system: Gram-negative pathogens as well as Gram-positive bacteria; parameters: method as in PMID 27598688; conditions: compared with 11; cited from earlier work
[4] = test system: Staphylococcus aureus RN 4220; experiment: Antibacterial susceptibility, broth microdilution MIC; type: cell-based; conditions: RN4220, 24 h
Method: Whole-cell antimicrobial activities were determined using a broth microdilution method described previously. Most of the test strains were grown to mid-log phase in Mueller–Hinton broth and diluted 1,000-fold in the same medium. Cells (10^5/mL) were dispensed at 0.2 mL/well in 96-well microtiter plates. Streptococcus pneumonia and Acinetobacter baumanii were grown in Todd–Hewitt medium and nutrient broth, respectively. […] Cells were treated with 0.05% DMSO as a vehicle control. The MICs were determined in triplicate by serial two-fold dilutions of the test compounds. […] Bacterial growth was determined by measuring the absorption at 650 nm using a microtiter enzyme-linked immunosorbent assay (ELISA) reader (Molecular Devices Corporation, Sunnyvale, CA, USA).

[5] = test system: MRSA CCARM 3167; experiment: as above; type: cell-based; conditions: Staphylococcus aureus, 24-h incubation at 37 °C
Method: (§1) Whole-cell antimicrobial activities were determined using a broth microdilution method described previously. Most of the test strains were grown to mid-log phase in Mueller–Hinton broth and diluted 1,000-fold in the same medium. Cells (10^5/mL) were dispensed at 0.2 mL/well in 96-well microtiter plates. Streptococcus pneumonia and Acinetobacter baumanii were grown in Todd–Hewitt medium and nutrient broth, respectively. […]. Cells were treated with 0.05% DMSO as a vehicle control. The MICs were determined in triplicate by serial two-fold dilutions of the test compounds. […] Bacterial growth was determined by measuring the absorption at 650 nm using a microtiter enzyme-linked immunosorbent assay (ELISA) reader (Molecular Devices Corporation, Sunnyvale, CA, USA).

[6] = test system: Enterococcus faecalis KCTC 5191; experiment: as above; type: cell-based; conditions: KCTC5191, 24-h incubation at 37 °C
Method: as §1

[7] = test system: Pseudomonas aeruginosa KCTC 2004; experiment: as above; type: cell-based; conditions: KCTC2004; Pseudomonas aeruginosa KCTC 2004; 24-h incubation at 37 °C
Method: as §1

[8] = test system: Klebsiella pneumoniae KCTC 22057; experiment: as above; type: cell-based; conditions: KCTC22057; Klebsiella pneumoniae KCTC 22057; 24-h incubation at 37 °C
Method: as §1

[9] = test system: E. coli KCTC 1682; experiment: as above; type: cell-based; conditions: Escherichia coli
Method: as §1

[10] = test system: MRSA CCARM 3506; experiment: as above; type: cell-based; conditions: Staphylococcus aureus, 24-h incubation at 37 °C
Method: as §1

[11] = test system: Streptococcus pneumonia KCTC 5412; experiment: as above; type: cell-based; conditions: Streptococcus pneumoniae, KCTC5412, Todd–Hewitt medium, 24-h incubation at 37 °C
Method: as §1

[12] = test system: E. coli CCARM 1356; experiment: as above; type: cell-based; conditions: Escherichia coli, CCARM1356, 24-h incubation at 37 °C
Method: as §1

[13] = test system: Acinetobacter baumannii KCTC 2508; experiment: as above; type: cell-based; conditions: KCTC2508, nutrient broth, 24-h incubation at 37 °C
Method: as §1

[14] = test system: QRSA CCARM 3505; experiment: as above; type: cell-based; conditions: Staphylococcus aureus, CCARM3505; QRSA CCARM 3505; 24-h incubation at 37 °C; read-out: MIC
Method: as §1

[15] = test system: QRSA CCARM 3519; experiment: as above; type: cell-based; conditions: Staphylococcus aureus, CCARM3519; QRSA CCARM 3519; 24-h incubation at 37 °C; read-out: MIC
Method: as §1

[16] = target: DNA gyrase; conditions: read-out: IC50, DNA gyrase-inhibitory activity; cited from earlier work
[17] = test system: Gram-negative and Gram-positive bacteria; conditions: cited from earlier work
[18] = KCTC1682, 24-h incubation at 37 °C, Table 6 and Table S1, read-out: MIC

T1 sequence (P0AES4 whole entry, one chain of several): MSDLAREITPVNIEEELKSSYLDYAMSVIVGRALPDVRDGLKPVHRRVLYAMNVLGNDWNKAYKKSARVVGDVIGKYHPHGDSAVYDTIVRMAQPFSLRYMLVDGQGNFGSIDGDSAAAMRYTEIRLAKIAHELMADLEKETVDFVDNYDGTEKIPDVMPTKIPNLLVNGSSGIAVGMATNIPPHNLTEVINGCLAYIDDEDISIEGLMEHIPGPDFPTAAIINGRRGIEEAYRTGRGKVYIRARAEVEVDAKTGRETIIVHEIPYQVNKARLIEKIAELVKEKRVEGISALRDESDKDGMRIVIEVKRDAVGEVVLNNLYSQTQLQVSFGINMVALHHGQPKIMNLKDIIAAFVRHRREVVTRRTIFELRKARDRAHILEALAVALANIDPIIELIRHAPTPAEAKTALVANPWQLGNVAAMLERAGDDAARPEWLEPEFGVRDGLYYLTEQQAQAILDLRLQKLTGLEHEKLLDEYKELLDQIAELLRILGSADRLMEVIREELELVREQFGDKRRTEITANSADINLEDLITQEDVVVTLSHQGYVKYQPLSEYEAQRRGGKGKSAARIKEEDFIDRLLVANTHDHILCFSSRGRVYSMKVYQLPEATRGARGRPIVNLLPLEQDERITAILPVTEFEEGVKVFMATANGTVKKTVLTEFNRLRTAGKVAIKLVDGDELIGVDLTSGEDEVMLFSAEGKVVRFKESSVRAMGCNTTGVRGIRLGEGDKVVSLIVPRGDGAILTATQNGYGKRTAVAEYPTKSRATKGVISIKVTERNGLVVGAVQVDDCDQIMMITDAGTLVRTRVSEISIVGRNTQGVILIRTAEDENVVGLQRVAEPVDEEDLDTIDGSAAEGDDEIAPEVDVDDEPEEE

Compound | antibacterial activity against Gram-negative pathogens relative to 12 (times higher) [1] | IC50 [2] [µM] | antibacterial activity relative to 11 (times higher) [3] [times] | MIC [4] [µg/mL] | MIC [5] [µg/mL] | MIC [6] [µg/mL] | MIC [7] [µg/mL] | MIC [8] [µg/mL] | MIC [9, 18] [µg/mL] | MIC ([9]; KCTC1682, 24 h, Table 7, read-out: MIC, antibacterial activity on E. coli KCTC 1682) [µg/mL] | MIC [10] [µg/mL] | MIC [11] [µg/mL] | MIC [12] [µg/mL] | MIC [13] [µg/mL] | MIC [14] [µg/mL] | MIC [15] [µg/mL] | IC50 [16] [µM] | antibacterial activity ([17]; in words) | MICs against Gram-negative and Gram-positive bacteria ([17]; reported range) [µg/mL] | MIC ([9]; KCTC1682, Table 7, read-out: MIC, antibacterial activity on E. coli KCTC 1682) [µg/mL]
CO[C@@H](C(N)=O)[C@H](NC(=O)c1ccc(NC(=O)c2ccc([N+](=O)[O-])cc2)cc1)C(=O)Nc1ccc(C(=O)Nc2ccc(C(=O)Nc3ccc(C(=O)O)cc3)c(O)c2OC(C)C)cc1 [cystobactamid 861-2] | 4–10 times |  |  |  |  |  |  |  |  |  |  |  |  |  |  |  |  |  |  | 
CO[C@@H](C(N)=O)[C@H](NC(=O)c1ccc(NC(=O)c2ccc([N+](=O)[O-])cc2)cc1)C(=O)Nc1ccc(C(=O)Nc2ccc(C(=O)Nc3ccc(C(=O)O)c(O)c3OC(C)C)c(O)c2OC(C)C)cc1 [Compound 12, coralmycin A, reference compound] |  | 0.08 | 10 | 0.015 (≈ 0.016 µM) | 0.015 (≈ 0.016 µM) | 0.03 (≈ 0.0321 µM) | 4 (≈ 4.27 µM) | 2 (≈ 2.14 µM) | 0.125 (≈ 0.134 µM) | 0.25 (≈ 0.267 µM) | 0.015 (≈ 0.016 µM) | 0.25 (≈ 0.267 µM) | 0.125 (≈ 0.134 µM) | 0.125 (≈ 0.134 µM) | 0.125 (≈ 0.134 µM) | 0.25 (≈ 0.267 µM) |  |  |  | 
CC(C)Oc1cc(C(=O)O)ccc1NC(=O)c1ccc(NC(=O)c2ccc(N)cc2)c(OC(C)C)c1O [Compound 10, cystobactamid 507] |  | > 300 |  | > 32 | > 32 | > 32 | > 32 | > 32 | > 32 |  | > 32 | > 32 | > 32 | > 32 | > 32 | > 32 | 20.2 | weak antibacterial activity | 4 to 65 | > 32
